Read-outs that look alike come from different tables or passages of the source.
Assays:
LNCaP cells = test: Prostate cancer cell growth assay, single compound (CellTiter-Glo); type: cell-based; settings: Homo sapiens, 120 h, 5 days incubation
Protocol: (§1) Growth assays were done in triplicate and performed as follows.
(§2) 1. On Day 1, LNCaP and 22Rv1 cells were seeded in wells of a 96-well plate at a density of 3000 cells/well in 100 μL of culture media (RPMI 1640 medium supplemented with 10% fetal bovine serum and 1% Penicillin/Streptomycin). Cells were incubated overnight at 37° C. in a humidified atmosphere with 5% CO2.
(§3) 2. On Day 2, for single compound treatment studies, each compound was serially diluted 1:3 in DMSO to create a 9-point titration. A 3 μL aliquot of each dilution was added to 747 μL culture media and 100 μL were added to each triplicate well. Wells containing 0.2% DMSO-treated cells served as uninhibited controls.
(§4) In all studies, cells were incubated at 37° C. in a humidified atmosphere with 5% CO2 for 5 days.
(§5) 3. On Day 7, cell cultures were brought to room temperature for 30 minutes and 50 μL of reconstituted CellTiter-Glo Reagent was added to each well. Plates were shaken at room temperature for approximately 15 minutes Luminescent signal was quantified on a microplate reader.
(§6) 1. For single compound treatment study, all responses were expressed as % inhibition (the percentage inhibition compared to the average response of the DMSO-treated control wells). The data were analyzed by using nonlinear regression to generate IC50 values in Prism (GraphPad, La Jolla, Calif.). 95% confident interval (CI95) of the IC50 values were also calculated in Prism.

22Rv1 cells = test: as above; type: cell-based; settings: Homo sapiens, 120 h, 22Rv1 cell growth, 5 days incubation
Protocol: as §1, §2, §3, §4, §5, §6

[1] = n=3, read-out: IC50 (geometric mean)

| SMILES | IC50 (LNCaP cells; [1]) [nM] | IC50 (22Rv1 cells; [1]) [nM] | IC50 (LNCaP cells; read-out: IC50) [nM] | IC50 (22Rv1 cells; read-out: IC50) [nM] |
| --- | --- | --- | --- | --- |
| CC(=O)O[C@H]1CC[C@@]2(C)C(=CC[C@@H]3[C@@H]2CC[C@]2(C)C(c4cccnc4)=CC[C@@H]32)C1 [Abiraterone acetate, abiraterone acetate, reference compound] | 3500 | 42000 | – | – |
| Cc1noc(C)c1-c1cnc2c(-c3ccc(C(=O)O)cc3)cn(C(C)(c3ccccn3)c3ccccn3)c2c1 [Compound I, 4-(1-(1,1-di(pyridin-2-yl)ethyl)-6-(3,5-dimethylisoxazol-4-yl)-1H-pyrrolo[3,2-b]pyridin-3-yl)benzoic acid] | 43 | 34 | 43 | 34 |
